Data published in patent US20250026765A1, “SPIROHETEROCYCLE DERIVATIVE HAVING SEROTONIN RECEPTOR BINDING ACTIVITY” (Shionogi & Co., Ltd., priority 2021, published 2025).
Like-named read-outs stand apart in the source and are kept apart here.

Legend:
CYP3A4 = CYP3A4 (Homo sapiens (Human), UniProt P08684); assay: CYP3A4 (MDZ) MBI test; assay type: in vitro ADME; details: pooled human liver microsomes, midazolam 1-hydroxylation, pre-reaction 0 or 30 minutes
Description: Test Example 8: CYP3A4 (MDZ) MBI Test
This test is a test to evaluate mechanism based inhibition (MBI) potency from enhancement of CYP3A4 inhibition of the compound of the present invention by a metabolism reaction. CYP3A4 inhibition is evaluated using pooled human liver microsomes by 1-hydroxylation reaction of midazolam (MDZ) as a marker reaction.
The reaction conditions are as follows: substrate, 10 μmol/L MDZ; pre-reaction time, 0 or 30 minutes; reaction time, 2 minutes; reaction temperature, 37° C.; pooled human liver microsomes, at pre-reaction 0.5 mg/mL, at reaction 0.05 mg/mL (at 10-fold dilution); concentrations of the compound of the present invention, 0.83, 5, 10, 20 μmol/L (four points).
Pooled human liver microsomes and a solution of the compound of the present invention in K-Pi buffer (pH 7.4) as a pre-reaction solution are added to a 96-well plate at the composition of the pre-reaction. A part of pre-reaction solution is transferred to another 96-well plate, and 1/10 diluted by K-Pi buffer containing a substrate. NADPH as a co-factor is added to initiate a reaction as a marker reaction (without preincubation). After a predetermined time of a reaction, methanol/acetonitrile=1/1 (V/V) solution is added to stop the reaction. In addition, NADPH is added to a remaining pre-reaction solution to initiate a pre-reaction (with preincubation). After a predetermined time of a pre-reaction, a part is transferred to another plate, and 1/10 diluted by K-Pi buffer containing a substrate to initiate a reaction as a marker reaction. After a predetermined time of a reaction, methanol/acetonitrile=1/1 (V/V) solution is added to stop the reaction. Each plate where the marker reaction has been performed is centrifuged at 3000 rpm for 15 minutes. Then, midazolam 1-hydroxide in the centrifuged supernatant is quantified by LC/MS/MS.
Only DMSO which is a solvent dissolving the compound of the present invention added to a reaction system is adopted as a control (100%). Remaining activity (%) is calculated at each concentration of the compound of the present invention added. IC is calculated by reverse-presumption by a logistic model using a concentration and an inhibition rate. Shifted IC value is calculated as “IC of preincubation at 0 min/IC of preincubation at 30 min”. When a shifted IC is 1.5 or more, this is defined as positive. When a shifted IC is 1.0 or less, this is defined as negative.

[1] = target: human recombinant 5-HT2C receptor (Homo sapiens (Human), UniProt P28335); assay: 5-HT2C receptor binding inhibition test ([3H]-Mesulergine); details: Jump-In HEK cell membrane, 37° C. 2 hours
Summary of the method: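 Radioligand displacement on HEK membranes expressing human recombinant 5-HT2C (0.5 μg/well), [3H]-mesulergine near its Kd, in pH 7.4 Tris-HCl buffer with NaCl, MgCl2, KCl, CaCl2 and 0.1% BSA, 2 h at 37° C. Bound radioactivity measured after GF/B filtration; non-specific binding defined with 500 μmol/L serotonin, Ki from dose-response curve.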

[2] = read-out: human serotonin 5-HT2C receptor binding activity Ki

Sequence of CYP3A4 (P08684 whole entry): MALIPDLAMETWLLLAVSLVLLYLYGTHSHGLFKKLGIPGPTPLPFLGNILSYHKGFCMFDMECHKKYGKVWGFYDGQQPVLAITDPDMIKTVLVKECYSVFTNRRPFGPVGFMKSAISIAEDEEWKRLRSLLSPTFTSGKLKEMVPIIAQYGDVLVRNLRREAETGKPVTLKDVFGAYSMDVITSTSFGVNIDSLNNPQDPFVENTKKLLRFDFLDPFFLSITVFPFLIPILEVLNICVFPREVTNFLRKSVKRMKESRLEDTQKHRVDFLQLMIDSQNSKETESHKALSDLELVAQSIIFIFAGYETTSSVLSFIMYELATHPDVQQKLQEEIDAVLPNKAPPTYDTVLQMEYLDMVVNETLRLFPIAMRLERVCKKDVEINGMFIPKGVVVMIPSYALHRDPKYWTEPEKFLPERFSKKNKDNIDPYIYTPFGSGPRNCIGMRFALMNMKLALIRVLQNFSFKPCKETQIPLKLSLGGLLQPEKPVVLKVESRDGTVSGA
Sequence of human recombinant 5-HT2C receptor (P28335 33-458): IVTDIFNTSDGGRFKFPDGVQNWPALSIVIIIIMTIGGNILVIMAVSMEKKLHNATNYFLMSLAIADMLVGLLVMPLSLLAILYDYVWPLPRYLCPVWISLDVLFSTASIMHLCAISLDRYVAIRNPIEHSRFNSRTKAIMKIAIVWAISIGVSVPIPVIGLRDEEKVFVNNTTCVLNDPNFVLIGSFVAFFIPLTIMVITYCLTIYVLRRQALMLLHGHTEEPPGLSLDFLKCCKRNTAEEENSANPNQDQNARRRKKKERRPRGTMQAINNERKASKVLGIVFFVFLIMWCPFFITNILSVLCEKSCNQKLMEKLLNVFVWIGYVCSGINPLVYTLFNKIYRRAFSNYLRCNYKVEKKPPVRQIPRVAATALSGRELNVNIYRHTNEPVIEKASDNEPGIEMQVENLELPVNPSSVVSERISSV

Ki [1, 2] [nM] | SMILES | CYP3A4 (MDZ) MBI (shifted IC) (CYP3A4) | Ki ([1]; read-out: h-5-HT2C Ki) [nM]
1.6 | CCCCOc1ccc(CN(Cc2cnn(C)n2)C2=NOC3(CCN(C)CC3)N2)cc1 [Compound I-113] | Negative (When a shifted IC is 1.0 or less, this is defined as negative) | 
0.543 | CCCCOc1ccc(CN(Cc2coc(C)n2)C2=NOC3(CCN(C)CC3)N2)c(F)c1 [Compound I-114] | Negative (When a shifted IC is 1.0 or less, this is defined as negative) | 
0.469 | CCCCOc1ccc(CN(Cc2coc(C)n2)C2=NOC3(CCN(C)CC3)N2)cc1F [Compound I-115] | Negative (When a shifted IC is 1.0 or less, this is defined as negative) | 
0.694 | Cc1nc(CN(Cc2ccc(CCC(F)(F)F)cc2)C2=NOC3(CCN(C)CC3)N2)co1 [Compound I-125] | Negative (When a shifted IC is 1.0 or less, this is defined as negative) | 
0.374 | Cc1nc(CN(Cc2ccc(OCC(C)C)cc2F)C2=NOC3(CCN(C)CC3)N2)co1 [Compound I-128] | Negative (When a shifted IC is 1.0 or less, this is defined as negative) | 

The remaining lines, values behind:

SMILES | Ki [1, 2] [nM] | CYP3A4 (MDZ) MBI (shifted IC) (CYP3A4) | Ki ([1]; read-out: h-5-HT2C Ki) [nM]
CC(C)COc1ccc(CN(Cc2coc(CF)n2)C2=NOC3(CCN(C)CC3)N2)cc1 [Compound I-067] | 0.95 | Negative (When a shifted IC is 1.0 or less, this is defined as negative) | < 10
CCCCOc1ccc(CN(Cc2coc(C)n2)C2=NOC3(CCN(C)CC3)N2)cc1 [Compound I-080] | 0.579 | Negative (When a shifted IC is 1.0 or less, this is defined as negative) | < 10
Cc1nc(CN(Cc2ccc(OCC(F)(F)C(F)(F)F)cc2F)C2=NOC3(CCN(C)CC3)N2)co1 [Compound I-104] | 0.578 | Negative (When a shifted IC is 1.0 or less, this is defined as negative) | 
CCCCOc1ccc(CN(Cc2coc(CF)n2)C2=NOC3(CCN(C)CC3)N2)cc1 [Compound I-105] | 1.13 | Negative (When a shifted IC is 1.0 or less, this is defined as negative) | 
